In PubChem BioAssay AID248 (DTP/NCI, 2004):
“And” between values parts separate entries of the source, which are not always exact repeats. Equal entries are not always repeated. Inconclusive results and toxic doses are left out.

Test system: L1210 leukemia ip in BDF1 mice, survival T/C
Assay: NCI In Vivo Anticancer Drug Screen. Data for tumor model L1210 Leukemia (intraperitoneal) in B6D2F1 (BDF1) mice
Conditions: endpoint: mean survival time, higher = longer survival
How it was run: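 Read-out is survival time, reported as the treated-group measurement over the vehicle-control measurement.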

`CC[C@@]1(O)C(=O)OCc2c1cc1n(c2=O)Cc2cc3ccccc3nc2-1` was tested, and the T/C (dose: 0.05 mg/kg/injection, schedule: Q01DX Z (ip), vehicle: carboxymethylcellulose (CMC)) was 94 % of control, the T/C (dose: 0.1 mg/kg/injection, schedule: Q01DX Z (ip), vehicle: carboxymethylcellulose (CMC)) was 97 % of control and the T/C (dose: 0.12 mg/kg/injection, schedule: Q01DX009 (ip), vehicle: saline) was 105 % of control and 108 % of control. The T/C (dose: 0.12 mg/kg/injection, schedule: Q#A X Z (ip), vehicle: saline) was 122 % of control, the T/C (dose: 0.13 mg/kg/injection, schedule: Q01DX Z (ip), vehicle: water) was 105 % of control and the T/C (dose: 0.2 mg/kg/injection, schedule: Q01DX Z (ip), vehicle: saline) was 118 % of control. For the same molecule, the T/C (dose: 0.22 mg/kg/injection, schedule: Q01DX Z (ip), vehicle: water) was 103 % of control, the T/C (dose: 0.22 mg/kg/injection, schedule: Q03DX Z (ip), vehicle: saline) was 103 % of control and the T/C (dose: 0.25 mg/kg/injection, schedule: Q01DX006 (iv), vehicle: saline) was 103 % of control. For the same molecule, the T/C (dose: 0.25 mg/kg/injection, schedule: Q01DX009 (ip), vehicle: saline) was 94 % of control, the T/C (dose: 0.25 mg/kg/injection, schedule: Q01DX Z (im), vehicle: saline) was 108 % of control and the T/C (dose: 0.25 mg/kg/injection, schedule: Q01DX Z (sc), vehicle: saline) was 113 % of control. For the same molecule, the T/C (dose: 0.25 mg/kg/injection, schedule: Q## X Z (ip), vehicle: saline) was 106 % of control, the T/C (dose: 0.25 mg/kg/injection, schedule: Q#A X Z (ip), vehicle: saline) was 154 % of control and the T/C (dose: 0.33 mg/kg/injection, schedule: Q03DX Z (ip), vehicle: saline) was 111 % of control. For the same molecule, the T/C (dose: 0.36 mg/kg/injection, schedule: Q01DX Z (ip), vehicle: water) was 116 % of control, the T/C (dose: 0.5 mg/kg/injection, schedule: Q01DX001 (ip), vehicle: saline) was 107 % of control and the T/C (dose: 0.5 mg/kg/injection, schedule: Q01DX006 (iv), vehicle: saline) was 116 % of control. The T/C (dose: 0.5 mg/kg/injection, schedule: Q01DX009 (ip), vehicle: saline) was 111 % of control, the T/C (dose: 0.5 mg/kg/injection, schedule: Q01DX Z (ip), vehicle: carboxymethylcellulose (CMC)) was 163 % of control and the T/C (dose: 0.5 mg/kg/injection, schedule: Q01DX Z (oral), vehicle: saline) was 120 % of control. The T/C (dose: 0.5 mg/kg/injection, schedule: Q01DX Z (sc), vehicle: saline) was 118 % of control, the T/C (dose: 0.5 mg/kg/injection, schedule: Q03DX Z (ip), vehicle: saline) was 108 % of control and the T/C (dose: 0.6 mg/kg/injection, schedule: Q01DX Z (ip), vehicle: water) was 156 % of control. For the same molecule, the T/C (dose: 0.75 mg/kg/injection, schedule: Q01DX009 (ip), vehicle: saline) was 94 % of control and 95 % of control, the T/C (dose: 0.75 mg/kg/injection, schedule: Q03DX Z (ip), vehicle: saline) was 114 % of control and the T/C (dose: 1.0 mg/kg/injection, schedule: Q01DX001 (ip), vehicle: saline) was 107 % of control. The T/C (dose: 1.0 mg/kg/injection, schedule: Q01DX006 (iv), vehicle: saline) was 114 % of control, the T/C (dose: 1.0 mg/kg/injection, schedule: Q01DX009 (ip), vehicle: saline) was 97 % of control and the T/C (dose: 1.0 mg/kg/injection, schedule: Q01DX010 (ip), vehicle: saline) was 153 % of control. The T/C (dose: 1.0 mg/kg/injection, schedule: Q01DX010 (iv), vehicle: saline) was 117 % of control, the T/C (dose: 1.0 mg/kg/injection, schedule: Q01DX Z (ip), vehicle: carboxymethylcellulose (CMC)) was 166 % of control and the T/C (dose: 1.0 mg/kg/injection, schedule: Q01DX Z (ip), vehicle: saline) was 158 % of control. For the same molecule, the T/C (dose: 1.0 mg/kg/injection, schedule: Q01DX Z (ip), vehicle: water) was 171 % of control, the T/C (dose: 1.0 mg/kg/injection, schedule: Q01DX Z (oral), vehicle: saline) was 109 % of control and the T/C (dose: 1.0 mg/kg/injection, schedule: Q#A X Z (ip), vehicle: saline) was 185 % of control. For the same molecule, the T/C (dose: 1.25 mg/kg/injection, schedule: Q04DX003 (ip), vehicle: Klucel (hydroxypropylcellulose) (HPC)) was 113 % of control, the T/C (dose: 1.5 mg/kg/injection, schedule: Q03DX Z (ip), vehicle: saline) was 120 % of control and the T/C (dose: 1.5 mg/kg/injection, schedule: Q#A X Z (ip), vehicle: saline) was 104 % of control. For the same molecule, the T/C (dose: 1.6 mg/kg/injection, schedule: Q01DX Z (ip), vehicle: saline) was 196 % of control, the T/C (dose: 2.0 mg/kg/injection, schedule: Q01DX001 (ip), vehicle: saline) was 100 % of control and 124 % of control and the T/C (dose: 2.0 mg/kg/injection, schedule: Q01DX006 (iv), vehicle: saline) was 109 % of control. The T/C (dose: 2.0 mg/kg/injection, schedule: Q01DX010 (ip), vehicle: saline) was 93 % of control, the T/C (dose: 2.0 mg/kg/injection, schedule: Q01DX Z (im), vehicle: saline) was 94 % of control and 118 % of control and the T/C (dose: 2.0 mg/kg/injection, schedule: Q01DX Z (ip), vehicle: saline) was 122 % of control. For the same molecule, the T/C (dose: 2.0 mg/kg/injection, schedule: Q01DX Z (oral), vehicle: saline) was 120 % of control, the T/C (dose: 2.0 mg/kg/injection, schedule: Q07DX Z (ip), vehicle: saline) was 124 % of control and the T/C (dose: 2.0 mg/kg/injection, schedule: Q## X Z (ip), vehicle: saline) was 98 % of control. The T/C (dose: 2.25 mg/kg/injection, schedule: Q#A X Z (ip), vehicle: saline) was 93 % of control, the T/C (dose: 2.5 mg/kg/injection, schedule: Q01DX001 (ip), vehicle: saline) was 116 % of control and 202 % of control and the T/C (dose: 3.0 mg/kg/injection, schedule: Q01DX006 (iv), vehicle: saline) was 120 % of control. The T/C (dose: 3.0 mg/kg/injection, schedule: Q01DX Z (oral), vehicle: saline) was 120 % of control, the T/C (dose: 3.0 mg/kg/injection, schedule: Q03DX Z (ip), vehicle: saline) was 155 % of control and the T/C (dose: 3.2 mg/kg/injection, schedule: Q01DX Z (ip), vehicle: saline) was 121 % of control. The T/C (dose: 4.0 mg/kg/injection, schedule: Q01DX001 (ip), vehicle: saline) was 105 % of control, the T/C (dose: 4.0 mg/kg/injection, schedule: Q01DX010 (iv), vehicle: saline) was 108 % of control and the T/C (dose: 4.0 mg/kg/injection, schedule: Q01DX Z (ip), vehicle: saline) was 97 % of control. The T/C (dose: 4.0 mg/kg/injection, schedule: Q01DX Z (oral), vehicle: saline) was 118 % of control and 119 % of control, the T/C (dose: 4.5 mg/kg/injection, schedule: Q01DX006 (iv), vehicle: saline) was 122 % of control and the T/C (dose: 4.5 mg/kg/injection, schedule: Q01DX Z (im), vehicle: saline) was 117 % of control. For the same molecule, the T/C (dose: 4.5 mg/kg/injection, schedule: Q01DX Z (sc), vehicle: saline) was 175 % of control, the T/C (dose: 4.8 mg/kg/injection, schedule: Q01DX Z (ip), vehicle: saline) was 95 % of control and the T/C (dose: 5.0 mg/kg/injection, schedule: Q04DX003 (ip), vehicle: Klucel (hydroxypropylcellulose) (HPC)) was 96 % of control. The T/C (dose: 6.0 mg/kg/injection, schedule: Q03DX Z (ip), vehicle: saline) was 152 % of control, the T/C (dose: 6.5 mg/kg/injection, schedule: Q01DX006 (iv), vehicle: saline) was 170 % of control and the T/C (dose: 6.5 mg/kg/injection, schedule: Q01DX Z (sc), vehicle: saline) was 157 % of control. For the same molecule, the T/C (dose: 8.0 mg/kg/injection, schedule: Q01DX001 (ip), vehicle: saline) was 109 % of control, the T/C (dose: 8.6 mg/kg/injection, schedule: Q03DX Z (ip), vehicle: saline) was 194 % of control and the T/C (dose: 9.5 mg/kg/injection, schedule: Q01DX006 (iv), vehicle: saline) was 157 % of control. For the same molecule, the T/C (dose: 10.0 mg/kg/injection, schedule: Q04DX003 (ip), vehicle: Klucel (hydroxypropylcellulose) (HPC)) was 110 % of control, the T/C (dose: 13.0 mg/kg/injection, schedule: Q03DX Z (ip), vehicle: saline) was 124 % of control and the T/C (dose: 16.0 mg/kg/injection, schedule: Q07DX Z (ip), vehicle: saline) was 158 % of control and 213 % of control. For the same molecule, the T/C (dose: 19.0 mg/kg/injection, schedule: Q03DX Z (ip), vehicle: saline) was 93 % of control, the T/C (dose: 20.0 mg/kg/injection, schedule: Q04DX003 (ip), vehicle: Klucel (hydroxypropylcellulose) (HPC)) was 117 % of control and the T/C (dose: 24.0 mg/kg/injection, schedule: Q01DX001 (ip), vehicle: saline) was 111 % of control. The T/C (dose: 24.0 mg/kg/injection, schedule: Q07DX Z (ip), vehicle: saline) was 158 % of control, the T/C (dose: 35.0 mg/kg/injection, schedule: Q01DX001 (ip), vehicle: saline) was 122 % of control and the T/C (dose: 50.0 mg/kg/injection, schedule: Q07DX Z (ip), vehicle: saline) was 100 % of control. The T/C (dose: 125.0 micrograms/kg/injection, schedule: Q01DX001 (ip), vehicle: saline) was 103 % of control, the T/C (dose: 125.0 micrograms/kg/injection, schedule: Q01DX Z (ip), vehicle: saline) was 107 % of control and the T/C (dose: 156.0 micrograms/kg/injection, schedule: Q01DX001 (ip), vehicle: saline) was 107 % of control. The T/C (dose: 187.0 micrograms/kg/injection, schedule: Q01DX001 (ip), vehicle: saline) was 103 % of control, the T/C (dose: 250.0 micrograms/kg/injection, schedule: Q01DX Z (ip), vehicle: saline) was 101 % of control and the T/C (dose: 281.0 micrograms/kg/injection, schedule: Q01DX001 (ip), vehicle: saline) was 105 % of control. The T/C (dose: 310.0 micrograms/kg/injection, schedule: Q01DX001 (ip), vehicle: saline) was 101 % of control, the T/C (dose: 421.0 micrograms/kg/injection, schedule: Q01DX001 (ip), vehicle: saline) was 116 % of control and the T/C (dose: 500.0 micrograms/kg/injection, schedule: Q01DX Z (ip), vehicle: saline) was 107 % of control. For the same molecule, the T/C (dose: 620.0 micrograms/kg/injection, schedule: Q01DX001 (ip), vehicle: saline) was 107 % of control, the T/C (dose: 1250.0 micrograms/kg/injection, schedule: Q01DX001 (ip), vehicle: saline) was 110 % of control and the T/C (dose: 2000.0 micrograms/kg/injection, schedule: Q01DX Z (ip), vehicle: saline) was 222 % of control. The T/C (dose: 4000.0 micrograms/kg/injection, schedule: Q01DX Z (ip), vehicle: saline) was 205 % of control.
